# Test results from patent US5985911A, “C-terminal ketone inhibitors of matrix metalloproteinases and TNFα secretion” (Abbott Laboratories, priority 1997, dated 1999).
# Molecular target: T1, stromelysin (Homo sapiens, UniProt P08254)
# T1 construct: made in house; host or cells: E. coli
# Experiment: Determination of stromelysin inhibition (thiopeptide ester substrate cleavage, DTNB, microtiter plate)
# Format: biochemical
# Settings: not given
# Procedure: The efficacy of the compounds of this invention as matrix metalloproteinase inhibitors was determined by measuring the inhibition of stromelysin. The inhibition of stromelysin by the compounds of this invention was determined as follows: Recombinant truncated stromelysin (human sequence) produced in E. coli was prepared by expression and purification of the protein as described by Ye et al., Biochemistry, 1992, 31, 11231-11235. The enzyme was assayed by its cleavage of the thiopeptide ester substrate Ac-Pro-Leu-Gly-[2-mercapto-4-methyl-pentanoyl]-Leu-Gly-OEt described by Weingarten and Feder, Anal. Biochem., 1985, 147, 437-440 (1985), as a substrate of vertebrate collagenase. The reported conditions were modified to allow assays to be carried out in a microtiter plate. Upon hydrolysis of the thioester bond, the released thiol group reacts rapidly with 5,5'-dithio-bis(2-nitrobenzoic acid) (DTNB), producing a yellow color which is measured by a microtiter plate reader set at 405 nm. The rates of cleavage of the substrate by stromelysin in the presence or absence of inhibitors are measured in a 30 min assay at ambient temperature. Solutions of the compounds in DMSO are prepared, and these are diluted at various concentrations into the assay buffer (50 mM MES/NaOH pH 6.5 with 10 mM CaCl2 and 0.2% Pluronic F-68), which is also used for dilution of the enzyme and substrate. The potency of the compounds [IC50 ] are calculated from the inhibition/inhibitor concentration data.
# T1 sequence (P08254 100-272 limits assumed): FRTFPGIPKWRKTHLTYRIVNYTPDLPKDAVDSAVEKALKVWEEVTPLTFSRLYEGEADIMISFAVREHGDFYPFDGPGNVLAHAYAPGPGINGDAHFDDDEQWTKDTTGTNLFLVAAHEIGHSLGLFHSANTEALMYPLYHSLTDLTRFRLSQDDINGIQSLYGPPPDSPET
row,Structure (SMILES),IC50
1,C=CC[C@H](C(=O)NO)[C@@H](CC(C)C)C(=O)NC(Cc1ccccc1)C(=O)c1cccnc1 (stereo partly drawn) [Example 22],10 nM
2,CC(C)C[C@@H](C(=O)N[C@H](Cc1ccccc1)C(=O)c1c[nH]c2ccccc12)[C@H](O)C(=O)NO [Example 13],99 nM
3,C=CC[C@H](C(=O)NO)[C@@H](CC(C)C)C(=O)NC(Cc1ccccc1)C(=O)c1nccs1 (stereo partly drawn) [Example 26],220 nM

# Same assay, conditions: recombinant truncated stromelysin (human sequence); thiopeptide ester substrate, pH 6.5, 30 min, ambient temperature; read-out: IC50 (Inhibitory Potencies against Stromelysin)
row,Structure (SMILES),IC50
1,CC(C)C[C@@H](C(=O)N[C@H](Cc1ccccc1)C(=O)c1c[nH]c2ccccc12)[C@H](O)C(=O)O [Example 11],93000 nM
2,C=CCCC[C@H](C(=O)NO)[C@@H](CC(C)C)C(=O)N[C@@H](Cc1ccccc1)C(=O)c1c[nH]c2ccccc12 [Example 2],3.6 nM
3,CC(C)C[C@@H](C(=O)N[C@H](C(=O)c1c[nH]c2ccccc12)C(C)(C)C)[C@H](O)C(=O)NO [Example 14],1.2 nM
4,C=CC[C@H](C(=O)NO)[C@@H](CC(C)C)C(=O)N[C@@H](Cc1ccccc1)C(=O)c1ccccc1 [Example 18],4.5 nM
5,CC(C)C[C@@H](C(=O)N[C@@H](Cc1ccccc1)C(=O)c1ccccc1)[C@H](O)C(=O)NO [Example 15],27 nM
6,CC(C)C[C@@H](C(=O)N[C@@H](Cc1ccccc1)C(=O)c1c[nH]c2ccccc12)[C@H](O)C(=O)NO [Example 12],7.8 nM
7,CC(C)C[C@@H](C(=O)N[C@@H](Cc1ccccc1)C(=O)c1c[nH]c2ccccc12)[C@H](O)C(=O)O [Example 10],7100 nM
8,C=CC[C@H](C(=O)NO)[C@@H](CC(C)C)C(=O)N[C@@H](Cc1ccccc1)C(C)=O [Example 17],16 nM
9,C=CCCC[C@H](C(=O)NO)[C@@H](CC(C)C)C(=O)N[C@@H](Cc1ccc(O)cc1)C(=O)c1ccccc1 [Example 19],1.5 nM
10,C=CCCC[C@H](C(=O)O)[C@@H](CCCc1ccc(C)cc1)C(=O)N[C@@H](Cc1ccccc1)C(=O)c1c[nH]c2ccccc12 [Example 7],8 nM
11,C=CCCC[C@H](C(=O)NO)[C@@H](CCCc1ccc(C)cc1)C(=O)N[C@@H](Cc1ccccc1)C(=O)c1c[nH]c2ccccc12 [Example 8],8.6 nM
12,C=CC[C@H](C(=O)NO)[C@@H](CC(C)C)C(=O)N[C@H](C(=O)c1c[nH]c2ccccc12)C(C)(C)C [Example 9],1.2 nM
13,CC(C)C[C@H](CC(=O)NO)C(=O)N[C@@H](Cc1ccccc1)C(=O)c1c[nH]c2ccccc12 [Example 5],5.6 nM
14,Cc1ccc(CCC[C@H](CC(=O)NO)C(=O)N[C@@H](Cc2ccccc2)C(=O)c2c[nH]c3ccccc23)cc1 [Example 6],12 nM

# The next lines start with the values.
row,IC50,Structure (SMILES)
1,320 nM,CON=C(c1c[nH]c2ccccc12)[C@H](Cc1ccccc1)NC(=O)[C@@H](CC(=O)NO)CC(C)C [Example 30]
2,7.3 nM,C=CC[C@H](C(=O)NO)[C@@H](CC(C)C)C(=O)N[C@@H](CC1CCCCC1)C(=O)c1ccccc1 [Example 20]
3,2.7 nM,O=C(c1c[nH]c2ccccc12)[C@H](Cc1ccccc1)NC(=O)[C@H](CCCc1ccccc1)[C@H](O)C(=O)NO [Example 27]
4,110 nM,O=C(C[C@H](C(=O)N[C@@H](Cc1ccc(O)cc1)C(=O)c1ccccc1)C1CCCCC1)NO [Example 33]
5,320 nM,O=C(c1c[nH]c2ccccc12)[C@H](Cc1ccccc1)NC(=O)[C@@H](CCCc1ccccc1)[C@H](O)C(=O)NO [Example 28]
6,1.7 nM,C=CC[C@H](C(=O)NO)[C@@H](CC(C)C)C(=O)N[C@@H](Cc1ccccc1)C(=O)c1ccc[nH]1 [Example 21]
7,740 nM,CC(C)C[C@H](CC(=O)NO)C(=O)N[C@@H](CC(=O)O)C(=O)c1c[nH]c2ccccc12 [Example 31]
